According to patent EP0595557A1, “New substituted azetidinones as anti-inflammatory and antidegenerative agents” (MERCK & CO. INC., priority 1992, dated 1994):

Biological target: T1, Human Polymorphonuclear Leukocyte Elastase (Homo sapiens, UniProt P08246)
T1 construct: Crude extract of human polymorphonuclear leukocytes (PMN) containing elastase activity; from tissue; host or cells: human polymorphonuclear leukocytes (crude extract)
T1 sequence (P08246 30-267): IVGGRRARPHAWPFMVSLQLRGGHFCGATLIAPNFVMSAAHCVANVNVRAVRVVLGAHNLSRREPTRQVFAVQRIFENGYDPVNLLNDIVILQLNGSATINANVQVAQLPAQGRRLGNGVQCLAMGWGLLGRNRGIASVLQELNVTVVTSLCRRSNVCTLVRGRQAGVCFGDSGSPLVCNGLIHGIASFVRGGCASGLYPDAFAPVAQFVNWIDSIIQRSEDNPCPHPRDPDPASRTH
Test: Enzyme assay for inhibition of human polymorphonuclear leukocyte elastase via hydrolysis of Boc-AAPAN or Boc-AAPVN
Format: biochemical
Conditions: pH 7.5, second order rate constant for inactivation of the enzyme, expressed to the nearest thousand, read-out: Kobs/[I]
Summary of the method: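 Crude human PMN extract as enzyme source, with 0.2 mM Boc-AAPAN in 0.05M TES buffer pH 7.5. Inhibitors in DMSO were added to substrate before the extract, and rate was followed as ΔOD/min at 410 mµ. Values are kobs/I, the second-order inactivation rate constant (per mole per second).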

CCC[C@@H](NC(=O)N1C(=O)C(CC)(CC)[C@@H]1Oc1ccc(CC(=O)N2CCOCC2)cc1)c1ccc2c(c1)OCO2 [Compound 258]
kinact/KI: 1.78e+06 M⁻¹ s⁻¹

CCC[C@@H](NC(=O)N1C(=O)C(CC)(CC)[C@@H]1Oc1ccc(C(=O)N(C)CCN(C)Cc2cccc(OC)c2)cc1)c1ccc(C)cc1 [Compound 205]
kinact/KI: 1.91e+06 M⁻¹ s⁻¹

C=CCN(C)CCN(C)C(=O)c1ccc(O[C@@H]2N(C(=O)N[C@H](CCC)c3ccc(C)cc3)C(=O)C2(CC)CC)cc1 [Compound 166]
kinact/KI: 1.36e+06 M⁻¹ s⁻¹

CCC[C@@H](NC(=O)N1C(=O)C(CC)(CC)[C@@H]1Oc1ccc(C(=O)NS(=O)(=O)CCN(C)C)cc1)c1ccc(C)cc1 [Compound 88]
kinact/KI: 788000 M⁻¹ s⁻¹

CCC[C@@H](NC(=O)N1C(=O)C(CC)(CC)[C@@H]1Oc1ccc(C(=O)N2CCN(CC)CC2)cc1)c1ccc(C)cc1 [Compound 252]
kinact/KI: 2.32e+06 M⁻¹ s⁻¹

CCC[C@@H](NC(=O)N1C(=O)C(CC)(CC)[C@@H]1Oc1ccc(C(=O)NC)cc1)c1ccc(C)cc1 [Compound 198]
kinact/KI: 1.82e+06 M⁻¹ s⁻¹

CCC[C@@H](NC(=O)N1C(=O)C(CC)(CC)[C@@H]1Oc1ccc(C(=O)N(CC)CCN(C)C)cc1)c1ccc(C)cc1 [Compound 76]
kinact/KI: 1.44e+06 M⁻¹ s⁻¹

CCC[C@@H](NC(=O)N1C(=O)C(CC)(CC)[C@@H]1Oc1ccc(CC(N)=O)cc1)c1ccc(C)c(C(=O)N2CCOCC2)c1 [Compound 269]
kinact/KI: 637000 M⁻¹ s⁻¹

CCC[C@@H](NC(=O)N1C(=O)C(CC)(CC)[C@@H]1Oc1ccc(C(=O)NCCN2CCCC(O)C2)cc1)c1ccc(C)cc1 (some centres unmarked) [Compound 123]
kinact/KI: 1.53e+06 M⁻¹ s⁻¹

CCCC(NC(=O)N1C(=O)C(CC)(CC)C1Oc1ccc(C(=O)NCCN(C)C)cc1)c1ccc(C)cc1 (centres unmarked) [Compound 73, 2-[4-[[[2-(dimethylamino)ethyl]amino]carbonyl]phenoxy]-3,3-diethyl-N-[1-(4-methylphenyl)butyl]-4-oxo-1-azetidinecarboxamide]
kinact/KI: 968000 M⁻¹ s⁻¹

CCC[C@@H](NC(=O)N1C(=O)C(CC)(CC)[C@@H]1Oc1ccc(C(=O)N2CCOCC2)cc1)c1ccc(C)cc1 [Compound 199]
kinact/KI: 2.38e+06 M⁻¹ s⁻¹

CCC[C@@H](NC(=O)N1C(=O)C(CC)(CC)[C@@H]1Oc1ccc(CC(=O)NCCN(C)C)cc1)c1ccc(C)cc1 [Compound 43]
kinact/KI: 1.21e+06 M⁻¹ s⁻¹

CCC[C@@H](NC(=O)N1C(=O)C(CC)(CC)[C@@H]1Oc1ccc(C(=O)N(C)CCc2c[nH]cn2)cc1)c1ccc(C)cc1 [Compound 104]
kinact/KI: 2.39e+06 M⁻¹ s⁻¹

CCC[C@@H](NC(=O)N1C(=O)C(CC)(CC)[C@@H]1Oc1ccc(C(=O)Nc2cccc(Cl)c2)cc1)c1ccc(C)cc1 [Compound 135]
kinact/KI: 201000 M⁻¹ s⁻¹

CCC[C@@H](NC(=O)N1C(=O)C(CC)(CC)[C@@H]1Oc1ccc(C(=O)N2CCC[C@H]2CN(C)Cc2ccccc2)cc1)c1ccc(C)cc1 [Compound 149]
kinact/KI: 3.27e+06 M⁻¹ s⁻¹

CCC[C@@H](NC(=O)N1C(=O)C(CC)(CC)[C@@H]1Oc1ccc(C(=O)N2CCN(CCO)CC2)cc1)c1ccc(C)cc1 [Compound 256a, [S-(R*,S*)]-2-[4-[[(4-Hydroxyethyl)piperazin-1-yl]carbonyl]phenoxy]-((3,3-diethyl-N-[1-(methylphenyl)butyl]-4-oxo-1-azetidinecarboxamide]
kinact/KI: 2e+06 M⁻¹ s⁻¹

CCC[C@@H](NC(=O)N1C(=O)C(CC)(CC)[C@@H]1Oc1ccc(C(=O)N(C)CC(O)C(O)C(O)C(O)CO)cc1)c1ccc(C)cc1 (some centres unmarked) [Compound 156]
kinact/KI: 1.2e+06 M⁻¹ s⁻¹

CCC[C@@H](NC(=O)N1C(=O)C(CC)(CC)[C@@H]1Oc1ccc(C(=O)NCC(=O)O)cc1)c1ccc(C)cc1 [Compound 74]
kinact/KI: 1.43e+06 M⁻¹ s⁻¹

CCC[C@@H](NC(=O)N1C(=O)C(CC)(CC)[C@@H]1Oc1ccc(C(=O)N(C)CCN(C)C2CCC(CC)CC2)cc1)c1ccc(C)cc1 (some centres unmarked) [Compound 232]
kinact/KI: 2.48e+06 M⁻¹ s⁻¹

CCC[C@@H](NC(=O)N1C(=O)C(CC)(CC)[C@@H]1Oc1ccc(CC(=O)NCCCN(C)C)cc1)c1ccc(C)cc1 [Compound 45]
kinact/KI: 1.12e+06 M⁻¹ s⁻¹

CCC[C@@H](NC(=O)N1C(=O)C(CC)(CC)[C@@H]1Oc1ccc(CC(=O)NCC(=O)N(CCO)CCO)cc1)c1ccc(C)cc1 [Compound 49]
kinact/KI: 1.3e+06 M⁻¹ s⁻¹

CCCCNC(=O)c1ccc(OC2N(C(=O)NC(CCC)c3ccc(C)cc3)C(=O)C2(CC)CC)cc1 (centres unmarked) [Compound 201]
kinact/KI: 2.46e+06 M⁻¹ s⁻¹

CCC[C@@H](NC(=O)N1C(=O)C(CC)(CC)[C@@H]1Oc1ccc(C(=O)N(C)CCN(C)C2CCC3CC2C3(C)C)cc1)c1ccc(C)cc1 (some centres unmarked) [Compound 222]
kinact/KI: 2.29e+06 M⁻¹ s⁻¹

CCC[C@@H](NC(=O)N1C(=O)C(CC)(CC)[C@@H]1Oc1ccc(C(=O)N2CC3CC2CN3C)cc1)c1ccc(C)cc1 (some centres unmarked) [Compound 212]
kinact/KI: 860000 M⁻¹ s⁻¹

CCC[C@@H](NC(=O)N1C(=O)C(CC)(CC)[C@@H]1Oc1ccc(C(=O)N(C)CCN(C)Cc2cc(OC)cc(OC)c2)cc1)c1ccc(C)cc1 [Compound 206]
kinact/KI: 1.74e+06 M⁻¹ s⁻¹

CCC[C@@H](NC(=O)N1C(=O)C(CC)(CC)[C@@H]1Oc1ccc(C(=O)N2CCc3cc(OC)c(OC)cc3C2)cc1)c1ccc(C)cc1 [Compound 207]
kinact/KI: 2.7e+06 M⁻¹ s⁻¹

CCC[C@@H](NC(=O)N1C(=O)C(CC)(CC)[C@@H]1Oc1ccc(C(=O)N(C)CCN(C(C)C)C(C)C)cc1)c1ccc(Cl)cc1 [Compound 301]
kinact/KI: 1.5e+06 M⁻¹ s⁻¹

CCC[C@@H](NC(=O)N1C(=O)C(CC)(CC)[C@@H]1Oc1ccc(C(=O)NCCc2nccn2Cc2ccccc2)cc1)c1ccc(C)cc1 [Compound 114]
kinact/KI: 3.85e+06 M⁻¹ s⁻¹

CCC[C@@H](NC(=O)N1C(=O)C(CC)(CC)[C@@H]1Oc1ccc(C(=O)N(C)C2CCN(C)CC2)cc1)c1ccc(C)cc1 [Compound 215]
kinact/KI: 1.28e+06 M⁻¹ s⁻¹

CCC[C@@H](NC(=O)N1C(=O)C(CC)(CC)[C@@H]1Oc1ccc(C(=O)NCCN2CCCCCC2)cc1)c1ccc(C)cc1 [Compound 121]
kinact/KI: 2.07e+06 M⁻¹ s⁻¹

CCC[C@@H](NC(=O)N1C(=O)C(CC)(CC)[C@@H]1Oc1ccc(CC(=O)N2CCOCC2)cc1)c1ccc(C)c(COC(=O)N(CC)CC)c1 [Compound 292]
kinact/KI: 807000 M⁻¹ s⁻¹

CCC[C@@H](NC(=O)N1C(=O)C(CC)(CC)[C@@H]1Oc1ccc(CC(=O)N(C)CC(=O)N(CCO)CCO)cc1)c1ccc(C)cc1 [Compound 52]
kinact/KI: 273000 M⁻¹ s⁻¹

CCC[C@@H](NC(=O)N1C(=O)C(CC)(CC)[C@@H]1Oc1ccc(C(=O)N(CCN(C)Cc2ccccc2)Cc2ccccn2)cc1)c1ccc(C)cc1 [Compound 194]
kinact/KI: 2.47e+06 M⁻¹ s⁻¹

CCC[C@@H](NC(=O)N1C(=O)C(CC)(CC)[C@@H]1Oc1ccc(C(=O)N(C)CCN(C)Cc2cccc(C(F)(F)F)c2)cc1)c1ccc(C)cc1 [Compound 181]
kinact/KI: 564000 M⁻¹ s⁻¹

CCCCN(CCCC)CCOC(=O)c1ccc(O[C@@H]2N(C(=O)N[C@H](CCC)c3ccc(C)cc3)C(=O)C2(CC)CC)cc1 [Compound 23, 2-(dibutylamino)ethyl [S-(R*,S*)]-4-[[3,3-diethyl-1-[[[1-(4-methyl-phenyl)butyl]amino]carbonyl]-4-oxo-2-azetidinyl]oxy]benzoate]
kinact/KI: 992000 M⁻¹ s⁻¹

CCC[C@@H](NC(=O)N1C(=O)C(CC)(CC)[C@@H]1Oc1ccc(C(=O)NC2CCCN(CC)C2)cc1)c1ccc(C)cc1 (some centres unmarked) [Compound 162]
kinact/KI: 949000 M⁻¹ s⁻¹

CCC[C@@H](NC(=O)N1C(=O)C(CC)(CC)[C@@H]1Oc1ccc(C(=O)OC(C)CN(C)C)cc1)c1ccc(C)cc1 (stereo partly drawn) [Compound 13, 1-Dimethylamino-2-propyl [S-(R*,S*)]-4-[[3,3-diethyl-1-[[[1-(4-methyl-phenyl)butyl]amino]carbonyl]-4-oxo-2-azetidinyl]oxy]benzoate]
kinact/KI: 2.47e+06 M⁻¹ s⁻¹

CCC[C@@H](NC(=O)N1C(=O)C(CC)(CC)[C@@H]1Oc1ccc(C(=O)N(CC)CCN2CCCCC2)cc1)c1ccc(C)cc1 [Compound 132]
kinact/KI: 1.24e+06 M⁻¹ s⁻¹

CCC[C@@H](NC(=O)N1C(=O)C(CC)(CC)[C@@H]1Oc1ccc(C(=O)N2CCC[C@H]2CN2CCCC2)cc1)c1ccc(C)cc1 [Compound 119]
kinact/KI: 2.69e+06 M⁻¹ s⁻¹

CCC[C@@H](NC(=O)N1C(=O)C(CC)(CC)[C@@H]1Oc1ccc(C(=O)N(C)CCN(C)C)cc1)c1ccc(C(=O)N(C)C)cc1 [Compound 286]
kinact/KI: 551000 M⁻¹ s⁻¹

C=CC(C)(C)NCCN(C)C(=O)c1ccc(O[C@@H]2N(C(=O)N[C@H](CCC)c3ccc(C)cc3)C(=O)C2(CC)CC)cc1 [Compound 226]
kinact/KI: 1.31e+06 M⁻¹ s⁻¹

CCC[C@@H](NC(=O)N1C(=O)C(CC)(CC)[C@@H]1Oc1ccc(C(=O)N(C)CCN(C)C2C3CC4CC(C3)CC2C4)cc1)c1ccc(C)cc1 (some centres unmarked) [Compound 210]
kinact/KI: 2.13e+06 M⁻¹ s⁻¹

CCC[C@@H](NC(=O)N1C(=O)C(CC)(CC)[C@@H]1Oc1ccc(C(=O)N(C)CCN(C)C2CC3CCC2C3)cc1)c1ccc(C)cc1 (some centres unmarked) [Compound 220]
kinact/KI: 1.87e+06 M⁻¹ s⁻¹

CCC[C@@H](NC(=O)N1C(=O)C(CC)(CC)[C@@H]1Oc1ccc(C(=O)N(C)CCN2CCCCC2)cc1)c1ccc(C)cc1 [Compound 91]
kinact/KI: 892000 M⁻¹ s⁻¹

CCC[C@@H](NC(=O)N1C(=O)C(CC)(CC)[C@@H]1Oc1ccc(C(=O)N(C)C2CN3CCC2CC3)cc1)c1ccc(C)cc1 (some centres unmarked) [Compound 116]
kinact/KI: 3.48e+06 M⁻¹ s⁻¹

CCC[C@@H](NC(=O)N1C(=O)C(CC)(CC)[C@@H]1Oc1ccc(C(=O)N(C)CCN(C)Cc2ccccc2Cl)cc1)c1ccc(C)cc1 [Compound 204]
kinact/KI: 1.59e+06 M⁻¹ s⁻¹

CCC[C@@H](NC(=O)N1C(=O)C(CC)(CC)[C@@H]1Oc1ccc(C(=O)N(C)Cc2ccccc2)cc1)c1ccc(C)cc1 [Compound 188]
kinact/KI: 1.84e+06 M⁻¹ s⁻¹

CCC[C@@H](NC(=O)N1C(=O)C(CC)(CC)[C@@H]1Oc1ccc(C(=O)N(CCN(CC)CC)CCN(CC)CC)cc1)c1ccc(C)cc1 [Compound 144]
kinact/KI: 1.51e+06 M⁻¹ s⁻¹

CCC[C@@H](NC(=O)N1C(=O)C(CC)(CC)[C@@H]1Oc1ccc(C(=O)NCCc2cnc[nH]2)cc1)c1ccc(C)cc1 [Compound 89]
kinact/KI: 2.09e+06 M⁻¹ s⁻¹

CCC[C@@H](NC(=O)N1C(=O)C(CC)(CC)[C@@H]1Oc1ccc(C(=O)NCCn2ccnc2)cc1)c1ccc(C)cc1 [Compound 97]
kinact/KI: 1.07e+06 M⁻¹ s⁻¹
